Measurements reported in patent US7452523B2 (priority 2004, dated 2008).
Like-named read-outs stand apart in the source and are kept apart here.

Columns and labels:
[1] = test system: patients suffering from cough
chronic refractory cough = settings: 3 ml of 1% nebulized twice a day 6-10 weeks, with other drugs; cited from earlier work
capsaicin-induced cough = settings: lignocaine 20 mg, alone or with adrenaline; cited from earlier work
[2] = test system: patient with persistent refractory tussive syncope; settings: 1 ml of 1% nebulized every 4 hours for 10 days, with other anti-tussive drugs; cited from earlier work
cough [3] = settings: cited from earlier work
cough [4] = settings: cited from earlier work; remark: listed apart in the source
cough [5] = settings: nebulized before fibreoptic bronchoscopy; cited from earlier work
[6] = test system: mild to moderate asthma patients; settings: for incidence of oropharyngeal numbing, noted at least once: 12 week study
[7] = test system: cough responses in guinea pigs; settings: cited from earlier work
[8] = test system: persistent cough after stellate ganglion block; settings: 1 ml of 2% in 2 ml normal saline, nebulized; cited from earlier work

## CCN(CC)CC(=O)Nc1c(C)cccc1C [lidocaine, acetamide 2-(diethylamino)-N-(2,6-dimethylphenyl)]
[1]; 10 mg or 40 mg inhaled twice daily
  symptoms of cough patients sensitive to smoke, dust, airway pollution: substantial improvement of their symptoms
[1]; 16 mg lung dose delivered as 40 mg/1 ml saline, less than 2 minutes
  suppression of severe chronic cough: very efficacious
[1]; aerosolized
  cough in cystic fibrosis, bronchiectasis or other suppurative pulmonary disease: successful in suppressing the cough
[1]; formulation pH between 5.5 and 7.0
  tolerability and safety of aerosol: well tolerated and safe
[1]; three mg delivered to the lung
  efficacy in seasonal non-severe cough: efficacious
Chronic refractory cough
  treatment of refractory cough: effective
capsaicin-induced cough
  coughing: significantly reduced coughing
[2]
  syncopal episodes: able to resolve syncopal episodes
Cough [3]; 10 ml of 4%, about 30 minutes
  anesthesia of oropharynx: substantial anesthesia of oropharynx
Cough [3]; after the first treatment, 10 ml of 4%
  duration of cough suppression: about 9 weeks
Cough [3]; after the second administration
  duration of cough suppression: 7.5 weeks
Cough [4]; 10 to 20 mg every 4-6 hours, albuterol pretreatment
  cough: abolished cough
Cough [4]; 10 to 20 mg every 4-6 hours
  bronchoconstriction: not bronchoconstriction
Cough [4]; in vivo
  bronchospasm on administration: triggers bronchospasm
Cough [5]
  time to cough suppression: 10 to 15 min
[6]; 10 mg (16/55)
  patients with one or more respiratory AEs: 29%
[6]; 10 mg (22/55)
  incidence of oropharyngeal numbing, noted at least once: 40%
[6]; 10 mg twice daily, 12 weeks (39/55)
  patients with at least one adverse event: 71%
[6]; 40 mg (16/51)
  incidence of oropharyngeal numbing, noted at least once: 31.45%
[6]; 40 mg (18/51)
  patients with one or more respiratory AEs: 35%
[6]; 40 mg twice daily, 12 weeks (33/51)
  patients with at least one adverse event: 65%
[6]; compared with previous delivery
  lung deposition of lidocaine: increased two- to three-fold
[6]; human, in vivo
  loss of gag reflex: No loss of gag reflex
  reports of bronchospasm upon lidocaine delivery: no reports of bronchospasm
  tracheal aspiration of food or liquid: No case
[7]; 10 to 30 mg/ml
  total number of coughs induced by capsaicin: reduced the total number of coughs
[7]; aerosol 0.1 to 10 mg/ml
  onset of the first cough: delay onset of the first cough
  time course of cough responses: no significant effect
  total number of coughs: reduce the total number of coughs
[8]
  treatment of persistent cough: Treatment was achieved
